Source: patent US20230142981A1, “METHOD FOR IDENTIFING A MARKER FOR A BIOLOGICAL INTERACTION” (ARPEGGIO BIOSCIENCES, INC., priority 2020, published 2023)

Legend:
[1] = test system: fibrosarcoma cell line HT-1080; experiment: nascent RNA sequencing of HT-1080 cells exposed to GPX4 inhibitors; type: cell-based; conditions: 1 hour; for number of genes with significant changes in gene transcription: 1 μM, HT-1080 compared with IMR90; for HMOX1 differential expression (nascent RNA sequencing): HT-1080, 1 μM, Pval<10^−2
Method: (§1) To assess the transcriptional response of a cell to inhibition of GPX4, we exposed two cell lines to two different chemical inhibitors of GPX4 (ML162 and RSL3; available from Sigma Aldrich and Apex Bio respectively) and examined the transcriptional responses using a nascent RNA sequencing protocol. Briefly, a fibrosarcoma cell line HT-1080 and a lung fibroblast cell line IMR90 were exposed to 1 μM ML162 or 1 μM RSL3 for 1 hour and the nascent RNA sequencing protocol was performed.

[2] = test system: lung fibroblast cell line IMR90; experiment: nascent RNA sequencing of IMR90 cells exposed to GPX4 inhibitors; type: cell-based; conditions: IMR90, 1 μM, 1 hour, Pval 10^−3
Method: as §1

HMOX1 [3] = experiment: RT-qPCR assay of HMOX1 expression in HT-1080 cells; type: cell-based; conditions: for relative expression of HMOX1 in the absence of ferrostatin-1: HT-1080, 1 μM, four hours; for effect of ferrostatin-1 on induction of HMOX1: HT-1080, sodium arsenite 80 μM, hemin 5 μM, RSL3 1 μM, with or without 1 μM ferrostatin-1, four hours, normalized to DMSO control
Method: (§2) To confirm HMOX1 induction by the GPX4 inhibitors, an RT-qPCR assay was performed using three ferroptosis sensitive cancer cell lines: the fibrosarcoma cell line HT-1080, a Ewing's sarcoma cell line A673, and a renal clear cell carcinoma cell line 786-O. Briefly, cells were exposed to 1 μM ML162 or 1 μM RSL3 for 4 hours, RNA was isolated and an RT-qPCR assay was performed.
To further validate induction of HMOX1 mRNA expression by GPX4 inhibition, RT-qPCR was performed using varying doses of the RSL3 inhibitor. Briefly, HT-1080 cells were exposed to 5 μM RSL3, 1 μM RSL3, and 0.2 μM RSL3 for four hours, RNA was isolated and an RT-qPCR assay was performed to quantify HMOX1 expression. DMSO was used as a control exposure.
(§3) Briefly, HT-1080, A673, and 786-O cells were exposed to 1 μM ML162 or 1 μM RLS3 with or without 1 μM ferrostatin-1 for four hours, RNA was isolated and an RT-qPCR assay was performed to quantify HMOX1 expression. DMSO was used as a control exposure.
Sodium arsenite and hemin are known to be inducers of general oxidative stress in cells. Briefly, HT-1080 cells were exposed to sodium arsenite (80 μM), hemin (5 μM), ML162 (1 μM), or RSL3 (1 μM) with or without 1 μM ferrostatin-1 for four hours, RNA was isolated and an RT-qPCR assay was performed to quantify HMOX1 expression. DMSO was used as a control exposure.

HMOX1 [4] = experiment: RT-qPCR assay of HMOX1 expression in A673 cells; type: cell-based; conditions: A673, 1 μM; for relative expression of HMOX1 in the absence of ferrostatin-1: four hours, relative to ACTB
Method: as §2, §3

HMOX1 [5] = experiment: RT-qPCR assay of HMOX1 expression in 786-O cells; type: cell-based; conditions: 1 μM; for relative expression of HMOX1 in the absence of ferrostatin-1: four hours, relative to ACTB
Method: as §2, §3

[6] = test system: breast cancer cell line (MCF7); experiment: nascent RNA sequencing (SNAP-seq) of MCF7 cells after estradiol treatment; type: cell-based; conditions: MCF7, 100 nM estradiol, 15 minutes, significance threshold pval 10^−3
Method: (§4) To assess the sensitivity and dynamic range of the nascent RNA sequencing assay in gauging a cellular response to a stimulus, the performance of a steady state RNA-seq protocol was compared against a nascent RNA sequencing protocol using a breast cancer cell line (MCF7) model and estrogen treatment to elicit a well characterized, widespread transcriptional response driven by ERα and ERβ transcription factors. Briefly, cell cultures were treated with 100 nM estradiol for 15 minutes or left untreated (i.e., untreated controls) and a steady state RNA-seq protocol or the nascent RNA sequencing assay described herein above was performed.

[7] = test system: breast cancer cell line (MCF7); experiment: steady state RNA-seq of MCF7 cells after estradiol treatment; type: cell-based; conditions: MCF7, 100 nM estradiol, 15 minutes, pval 10^−3
Method: as §4

HT-1080 = conditions: HT-1080, cells treated with small molecules that induce lipid peroxidation; cited from earlier work
A673 = conditions: A673, cells treated with small molecules that induce lipid peroxidation; cited from earlier work
786-O = conditions: cells treated with small molecules that induce lipid peroxidation; cited from earlier work
[8] = 4 hours, normalized to DMSO control, n=2

Compound	number of genes with significant changes in gene transcription [1]	HMOX1 differential expression (nascent RNA sequencing) [1]	HMOX1 differential expression (nascent RNA sequencing) [2]	relative expression of HMOX1 in the absence of ferrostatin-1 (HMOX1 [3]; relative to ACTB)	relative expression of HMOX1 in the absence of ferrostatin-1 (HMOX1 [4])	relative expression of HMOX1 in the absence of ferrostatin-1 (HMOX1 [5])	effect of ferrostatin-1 on induction of HMOX1 (HMOX1 [3])	also measured
COc1ccc(N(C(=O)CCl)C(C(=O)NCCc2ccccc2)c2cccs2)cc1Cl (stereo not drawn) [ML162]	greater in the HT-1080 cell line relative to the IMR90 cell line	strongly differentially expressed	strongly differentially expressed	HMOX1 expression was observed	HMOX1 expression was observed	HMOX1 expression was observed		fold induction for HMOX1 mRNA (HMOX1 [3]; 1 µM): induced; relative expression of HMOX1 in the presence of ferrostatin-1 (HMOX1 [3]; HT-1080, 1 μM with 1 μM ferrostatin-1, four hours, relative to ACTB): induced HMOX1 even in the presence of ferrostatin-1; fold induction for HMOX1 mRNA (HMOX1 [4]; [8]): induced; fold induction for HMOX1 mRNA (HMOX1 [5]; [8]): induced
COC(=O)c1ccc([C@@H]2c3[nH]c4ccccc4c3C[C@@H](C(=O)OC)N2C(=O)CCl)cc1 [RSL3]	greater in the HT-1080 cell line relative to the IMR90 cell line	strongly differentially expressed	strongly differentially expressed	HMOX1 expression was observed	HMOX1 expression was observed	HMOX1 expression was observed	dependent on lipid peroxidation	
C[C@]12CC[C@@H]3c4ccc(O)cc4CC[C@H]3[C@@H]1CC[C@@H]2O [estradiol]								number of differentially expressed genes (estradiol/untreated), nascent RNA sequencing (SNAP-seq) [6]: 762; number of differentially expressed genes (estradiol/untreated), steady-state RNA-seq [7]: 8
CCOC(=O)c1ccc(NC2CCCCC2)c(N)c1 [ferrostatin-1]								rescue of cellular viability (ferroptosis-protective effect) (HT-1080): ferroptosis-protective effect has been observed; rescue of cellular viability (ferroptosis-protective effect) (A673): ferroptosis-protective effect has been observed; rescue of cellular viability (ferroptosis-protective effect) (786-O): ferroptosis-protective effect has been observed
O=[As]O [sodium arsenite]							not affected by the presence of ferrostatin-1	
hemin							not affected by the presence of ferrostatin-1	
